How the values were obtained:
Assay type in all cases: cell-based, mouse
NIH-3T3 cells [1] = experiment: Western blot of NIH-3T3 cells (collagen I, GCN2, ATF4, PC); conditions: for rescue of TGFβ-induced collagen I depletion: metabolite, 48 hours
Description: (§1) PSCs were isolated from C57BL/6 mice by differential centrifugation as previously described^49 and their mesenchymal origin was validated by analyzing the expression of various mesenchymal and epithelial markers. MFBs were isolated from FVB/N mice by differential centrifugation as previously described^50. DB7 mouse breast cancer cells were obtained from Alexander Borowsky (University of California Davis Comprehensive Cancer Center, Sacramento, CA, USA) through an MTA to Ohio State University (OSU). KPC (Kras^LSL-G12D; Trp53^LSL-R172H; Pdx1-Cre) mouse PDAC cells were a gift from Scott Lowe (Memorial Sloan Kettering Cancer Center. (MSKCC)). All cells were cultured at 37° C. in 5% carbon dioxide (CO2) and 20% oxygen (O2) and were maintained in Dulbecco's Modified Eagles medium (DMEM) (25 mM D-glucose, 2 mM L-glutamine) supplemented with 10% fetal bovine serum (FBS) (Gemini), 100 units/ml penicillin and 100 μg/ml streptomycin. Primary PSC and MFB cells were kept in culture for no more than ten passages. Experiments with iCAFs and myCAFs were performed as previously described^29. In brief, qPSCs were generated by culturing PSCs in a dome of GFR Matrigel (Corning) in DMEM; iCAFs were generated by culturing PSCs in a dome of GFR Matrigel in DMEM conditioned by KPC cells for 48 h; myCAFs were generated by monolayer culture of PSCs. Differentiation was validated by analyzing the expression of iCAF/myCAF markers^29. For experiments with different glutamine concentrations, cells were seeded in regular DMEM and the medium was changed 5-6 hours later or the following day to glucose and glutamine-free DMEM supplemented with 10% dialyzed FBS (Gemini) and 20 mM D-glucose, 2 mM L-glutamine (100%), 0.4 mM L-glutamine (20%) or 0.2 mM L-glutamine (10%). All media were prepared by the Media Preparation Facility at MSKCC. Cells were verified as mycoplasma-free by the MycoAlert Mycoplasma Detection Kit (Lonza).
Lysates were generated by incubating cells or ground tumors in RIPA buffer (Millipore); […] of cleared lysate were analyzed by SDS-polyacrylamide gel electrophoresis (SDS-PAGE) as previously described^11. […] The following secondary antibodies were used: anti-rabbit horseradish peroxidase (HRP) (1:5,000; GE, NA934V), anti-mouse HRP (1:5,000; GE, NA931). Quantification of band intensities of collagen I relative to […] or vinculin in tumor allograft experiments was performed with Image Lab software v6.0 (Bio-Rad).

NIH-3T3 cells [2] = experiment: Growth experiments, NIH-3T3 cells; conditions: 10% Gln, TGFβ, 0.2, 1 or 5 mM metabolite, 3 days
Description: NIH-3T3 cells were obtained from ATCC (CRL-1658); 293 T cells were obtained from ATCC (CRL-3216). PSCs were isolated from C57BL/6 mice by differential centrifugation as previously described^49 and their mesenchymal origin was validated by analyzing the expression of various mesenchymal and epithelial markers. MFBs were isolated from FVB/N mice by differential centrifugation as previously described^50. DB7 mouse breast cancer cells were obtained from Alexander Borowsky (University of California Davis Comprehensive Cancer Center, Sacramento, CA, USA) through an MTA to Ohio State University (OSU). KPC (Kras^LSL-G12D; Trp53^LSL-R172H; Pdx1-Cre) mouse PDAC cells were a gift from Scott Lowe (Memorial Sloan Kettering Cancer Center. (MSKCC)). All cells were cultured at 37° C. in 5% carbon dioxide (CO2) and 20% oxygen (O2) and were maintained in Dulbecco's Modified Eagles medium (DMEM) (25 mM D-glucose, 2 mM L-glutamine) supplemented with 10% fetal bovine serum (FBS) (Gemini), 100 units/ml penicillin and 100 μg/ml streptomycin. Primary PSC and MFB cells were kept in culture for no more than ten passages. Experiments with iCAFs and myCAFs were performed as previously described^29. In brief, qPSCs were generated by culturing PSCs in a dome of GFR Matrigel (Corning) in DMEM; iCAFs were generated by culturing PSCs in a dome of GFR Matrigel in DMEM conditioned by KPC cells for 48 h; myCAFs were generated by monolayer culture of PSCs. Differentiation was validated by analyzing the expression of iCAF/myCAF markers^29. For experiments with different glutamine concentrations, cells were seeded in regular DMEM and the medium was changed 5-6 hours later or the following day to glucose and glutamine-free DMEM supplemented with 10% dialyzed FBS (Gemini) and 20 mM D-glucose, 2 mM L-glutamine (100%), 0.4 mM L-glutamine (20%) or 0.2 mM L-glutamine (10%). All media were prepared by the Media Preparation Facility at MSKCC. Cells were verified as mycoplasma-free by the MycoAlert Mycoplasma Detection Kit (Lonza).
A total of 0.2×10^5 cells/well were plated in 24-well culture plates and media was changed and treatments started 5-6 hours later. Cell numbers at the start of treatment (day 0 “d 0”) and 1, 2 and 3 days later were counted using the Multisizer 4e (Beckman) and normalized to the cell number at d 0. In co-culture assays, a fraction of the cell population was analyzed by flow cytometry for GFP expression, and the rest counted with the Multisizer 4e. The number of KPC-GFP cells was determined by multiplying the fraction of GFP+ cells with the total number of cells.

NIH-3T3 cells [3] = experiment: tRNA charging assay, NIH-3T3 cells; conditions: 10% Gln, TGFβ 2 ng/mL, dm-αKG 5 mM with or without MSO 2 mM, 48 hours (FIG. 2A)
Description: Charging status of the indicated tRNA isodecoders was measured as previously described^20. In brief, Trizol-chloroform extracts were precipitated with 2.7× volumes of cold ethanol in the presence of 30 μg GlycoBlue (ThermoFisher) overnight. Samples were resuspended in 0.3 M acetate buffer (pH 4.5) with 10 mM ethylenediamine tetraacetic acid (EDTA) and precipitated overnight. Samples were resuspended in 10 mM acetate buffer with 1 mM EDTA. 2 μg of each RNA sample was treated with 10 mM of either sodium periodate (Sigma) (‘oxidized sample’) or sodium chloride (‘non-oxidized sample’) and incubated for 20 minutes at room temperature in the dark. Reactions were quenched with glucose for 15 minutes. Yeast Phe-tRNA (Sigma) was spiked into each sample, followed by ethanol precipitation. Samples were resuspended in 50 mM Tris buffer (pH 9) and incubated for 50 minutes at 37° C., quenched with acetate buffer and precipitated. […] Reverse transcription was performed with SuperScript IV reverse transcriptase (Thermo Scientific) according to the manufacturer's instructions, with a primer complementary to the DNA adaptor. cDNA samples were subjected to qPCR with tRNA isodecoder-specific primer pairs listed in Supplementary Table 1. Ct values obtained with primers specific for yeast Phe-tRNA were subtracted from Ct values obtained with isodecoder-specific primers. The charged fraction was calculated based on the relative difference between the delta-Ct value of a non-oxidized (representing total) and oxidized (representing charged) sample for each primer pair.

NIH-3T3 cells [4] = experiment: Translation assay (OPP), NIH-3T3 cells; conditions: cells expressing human PC cDNA, 10% Gln, TGFβ, MSO 48 hours (FIG. 3K)
Description: Cells were treated as indicated and incubated with 20 μM O-propargyl-puromycin (OPP, Thermo Scientific) for the last 1 hour of the experiment. Cells were harvested by trypsinization and fixed with methanol at −20° C., followed by permeabilization with 0.5% Triton X-100 in phosphate-buffered saline (PBS).

[5] = test system: pancreatic stellate cells (PSCs); experiment: Western blot of PSCs; conditions: TGFβ-treated PSCs, low glutamine, MSO (FIGS. 9A-9B)
Description: as §1, with “For experiments with different glutamine concentrations, cells were seeded in regular DMEM and the medium was changed 5-6 hours later or the following day to glucose and glutamine-free DMEM supplemented with 10% dialyzed FBS (Gemini) and 20 mM D-glucose, 2 mM L-glutamine (100%), 0.4 mM L-glutamine (20%) or 0.2 mM L-glutamine (10%). All media were prepared by the Media Preparation Facility at MSKCC. Cells were verified as mycoplasma-free by the MycoAlert Mycoplasma Detection Kit (Lonza).” left out
Lysates were generated by incubating cells or ground tumors in RIPA buffer (Millipore); […] of cleared lysate were analyzed by SDS-polyacrylamide gel electrophoresis (SDS-PAGE) as previously described^11. […] Quantification of band intensities of collagen I relative to […] or vinculin in tumor allograft experiments was performed with Image Lab software v6.0 (Bio-Rad).

NIH-3T3 cells [6] = experiment: Collagen abundance in ECM derived from confluent NIH-3T3 cells; conditions: low glutamine and low glucose medium (FIGS. 12E and 12F)
Description: Culture plates were coated with 0.1% gelatin (Sigma) and treated with 1% glutaraldehyde (Sigma) and 1 M ethanolamine (Sigma). Confluent NIH-3T3 cells, MFBs or PSCs were grown for 6 days on coated plates in the presence of […] sodium ascorbate (Sigma) and treated as indicated, and the medium was replaced every other day. Plates were decellularized with 20 mM ammonium hydroxide/0.5% Triton-X 100 for 5 min on a rotating platform. Three times the volume of PBS was added, and ECM was equilibrated overnight at 4° C., followed by four additional PBS washes. For western blot, preheated sample buffer supplemented with 1 mM dithiothreitol (DTT) was added, ECM was scraped off and boiled, and proteins were separated by SDS-PAGE followed by immunoblotting. To measure collagen abundance, fibroblast-derived ECM was stained with the Picro Sirius Red Stain Kit (Abcam) according to the manufacturer's instructions. The stain was extracted with 0.1 M sodium hydroxide (NaOH) and optical density was measured at 550 nm using a microplate reader. Differences in cell number were controlled for by growing cells on separate plates under the same experimental conditions.

[7] = concentrations relevant in vivo (10 mM lactate, 0.1 mM pyruvate), low glutamine and low glucose (FIG. 6E)

With `NC(=O)C[C@H](N)C(=O)O` [Asparagine, asparagine] the “rescue of TGFβ-induced collagen I depletion” value (NIH-3T3 cells [1]; 10% Gln) was “did not rescue” and the “rescue of TGFβ-induced growth defect” value (NIH-3T3 cells [2]) was “did not rescue”.
With `CS(=N)(=O)CC[C@H](N)C(=O)O` (stereo partly drawn) [MSO, methionine sulfoximine] the “restoration of collagen I levels by dm-αKG” value (NIH-3T3 cells [1]; PC-deleted cells, 10% Gln, dm-αKG plus MSO, 48 hours (FIG. 4I)) was “unable to restore”, the “restoration of collagen levels by dm-Glu and dm-αKG” value (NIH-3T3 cells [1]; TGFβ-treated NIH-3T3 cells, low glutamine, MSO (FIGS. 2C-2E)) was “prevented” and the “collagen I synthesis” value (NIH-3T3 cells [1]; low Gln (10%), no TGFβ, MSO 48 hours (FIG. 2J)) was “unable to maintain”. For the same compound, the “charging of glutamine-tRNA” value (NIH-3T3 cells [3]) was “blocked”, the “increase of protein translation by PC overexpression” value (NIH-3T3 cells [4]) was “blocked” and the “restoration of collagen levels by dm-Glu and dm-αKG” value [5] was “prevented”.
With `CC(=O)C(=O)[O-].[Na+]` [Pyruvate, sodium pyruvate] the “collagen 1 levels” value (NIH-3T3 cells [1]; [7]) was “only lactate supplementation increased” and the “potency to increase collagen 1 levels, relative” value (NIH-3T3 cells [1]; low glutamine and low glucose (FIG. 6E)) was “more potent than lactate”.
In the case of `CC(O)C(=O)[O-].[Na+]` (stereo not drawn) [lactate, sodium lactate], the “ability of extracellular lactate to rescue collagen I” value (NIH-3T3 cells [1]; Ctrl or PC sgRNA cells, low glutamine and low glucose (FIG. 6H)) is reported as “PC-dependent”, the “collagen 1 levels” value (NIH-3T3 cells [1]; [7]) is reported as “increased” and the “collagen 1 levels” value (NIH-3T3 cells [1]; low glutamine (10%) and low glucose (1 mM), 48 hours (FIG. 6E)) is reported as “increased”. For the same compound, the “collagen levels in the ECM produced by confluent fibroblasts” value (NIH-3T3 cells [6]) was “increased”.
`COC(=O)[C@@H]1CCCN1` [m-Pro, L-proline-methylester, reference compound] was tested, and the “rescue of TGFβ-induced collagen I depletion” value (NIH-3T3 cells [1]; 10% Gln) was “not” and the “rescue of TGFβ-induced growth defect” value (NIH-3T3 cells [2]) was “not”.
For `O=C(O)[C@@H]1CCCN1` [proline], the “rescue of TGFβ-induced collagen I depletion” value (NIH-3T3 cells [1]; 10% Gln) was “did not rescue” and the “rescue of TGFβ-induced growth defect” value (NIH-3T3 cells [2]) was “did not rescue”.
